From the METLIN SMRT retention time set (Domingo-Almenara et al. 2019) come the findings set out here.

The data set is described as follows: gradient 5% acetonitrile 3 min, to 50% in 2 min, to 85% in 15 min, held 3 min, 100 µL/min. The note with it: column: Zorbax Extend-C18 2.1 x 50 mm; eluents: water / acetonitrile, 0.1% formic acid. An outline of the steps: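 Over 3 months, pure standards in mixtures of ~100 molecules were run by HPLC coupled to a quadrupole time-of-flight mass spectrometer in positive and negative ionization mode. The column was a Zorbax Extend-C18 (2.1 × 50 mm, 1.8 μm) at 100 μL/min, eluted with water and acetonitrile each holding 0.1% formic acid, with 40 μL dead and 900 μL dwell volumes. Retention time was determined from adduct peaks chosen by software and checked manually.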
With `Cc1ccccc1NC(=O)c1csc(-c2cn(C)c3ncccc23)n1`, the RP-LC retention time amounted to 1020 s.

`Cc1nc(C2(C)CCN(C(=O)CCc3cc(Cl)no3)CC2)no1`: the RP-LC retention time is 750 s.

In the case of `Cc1nnc(N2CCC(C(=O)NCCc3c[nH]c4ccccc34)CC2)c2nn(-c3ccccc3)c(C)c12`, the RP-LC retention time came out at 730 s.

Regarding `CCOC(=O)c1c(N)n(-c2ccccc2)c2nc3ccccc3nc12`, the RP-LC retention time was determined as 683 s.

The compound `CC1=C(C(=O)Nc2cccc(C(=O)N3CCN(c4ccccc4)CC3)c2)SCCO1` yielded an RP-LC retention time of 873 s.

As to `COCC(C)(O)CNC(=O)NC1CCCCC1` (centres undefined), the RP-LC retention time was 596 s.

`O=C(Nc1ccc2c(c1)C(=O)Nc1ccccc1O2)NC1CCCCC1` gave an RP-LC retention time of 776 s.

Consider `Cc1cccc(CNC(=O)c2cc(N(C)C)n3nccc3n2)c1`, for which the RP-LC retention time worked out at 840 s.

In turn, `COc1ccc(N2CC(c3nc(-c4cccnc4)no3)CC2=O)cc1OC` (centres undefined) registered an RP-LC retention time of 665 s.

For `COc1ccc(C(C)(C)C)cc1S(=O)(=O)Nc1ccc(-c2cn3ccc(C)nc3n2)cc1`, the RP-LC retention time amounted to 758 s.

`CCN1C(=O)C(C)(C(=O)NCc2cccc(Cl)c2)Oc2cccnc21` (centres undefined) had an RP-LC retention time of 903 s.

The compound `CCOC(=O)Cn1c(C2CC(=O)N(c3ccccc3F)C2)nc2ccccc21` (centres undefined) yielded an RP-LC retention time of 746 s.

For the compound `CN(c1ccc(F)cc1)S(=O)(=O)N1CCCC(C(=O)N2CCN(c3ncccn3)CC2)C1` (centres undefined), the RP-LC retention time was 864 s.

Turning to `COc1ccc(CCNC(=O)c2nc(CCS(=O)(=O)c3ccccc3)no2)cc1OC`, the RP-LC retention time worked out at 754 s.

The compound `COc1ccccc1OCC1c2ccsc2CCN1C(=O)CN(CC1CC1)C(C)=O` (centres undefined) had an RP-LC retention time of 828 s.

The compound `CC1=C(c2ccccc2)S(=O)(=O)N=C1N1CCCN(C(=O)c2cccc(C#N)c2)CC1` yielded an RP-LC retention time of 777 s.

For the compound `CCN1C(=O)COc2cc(-c3noc(C(=O)N4CCN(C5CCCCC5)CC4)n3)ccc21`, the RP-LC retention time was found to be 652 s.

The compound `COc1ccc(Cl)cc1NC(=O)N1CC2CC1C(=O)O2` (centres undefined) returned an RP-LC retention time of 699 s.

As for `O=C(NCCn1c(=O)n(Cc2ccc(F)cc2)c2cccnc21)c1nccc2ccccc12`, the RP-LC retention time was 840 s.

The compound `Cc1nc(-c2cn(C)c3ncccc23)sc1C(=O)Nc1ccc(Cl)cc1` came in with an RP-LC retention time of 1060 s.

In turn, `CCc1nc(-c2csc(S(=O)(=O)N3CCCC(C(=O)Nc4cc(F)ccc4F)C3)c2)no1` (centres undefined) had an RP-LC retention time of 1090 s.

In turn, `CCOC(=O)C(C)NC(=O)Nc1cc(F)c2nc(N3CCOCC3)ccc2c1` (centres undefined) had an RP-LC retention time of 812 s.

For `CCc1noc(-c2cnc3nc(C)ccc3c2NCCc2ccccc2)n1`, the RP-LC retention time worked out at 621 s.

`Clc1cncc(N2CCNCC2)n1` returned an RP-LC retention time of 614 s.

`CSc1cccc(NC(=O)Nc2nc(-c3ccccc3)cs2)c1` gave an RP-LC retention time of 1090 s.

`CC(C)c1ccc(CNc2nc3ccncc3n(Cc3ccccc3)c2=O)cc1`: the RP-LC retention time came out at 842 s.

The compound `Cc1cc(-c2ccccc2)nc(Nc2nc(-c3ccccc3)c(CC(=O)O)s2)n1` yielded an RP-LC retention time of 922 s.

`COC(=O)c1cccc(C(=O)N2CCN(c3cc(Cl)ccc3C)CC2)n1` returned an RP-LC retention time of 946 s.

In turn, `CC1CCN(c2ccc(C(=O)NCC3CCCO3)cc2S(=O)(=O)N2CCC(C)CC2)CC1` (centres undefined) had an RP-LC retention time of 1170 s.

Turning to `O=C(Cn1ncc2c(N3CCN(c4ccccn4)CC3)ncnc21)Nc1ccc(C(F)(F)F)cc1`, the RP-LC retention time was 669 s.

Take `Cc1noc(C)c1CC(=O)N1CCC2(CC1)C(=O)N(C)c1ccccc12`: the RP-LC retention time was found to be 720 s.

`COc1ccc(Cl)cc1NS(=O)(=O)c1ccc2c(c1)CCCC(=O)N2`: the RP-LC retention time came out at 765 s.

For `Cc1nc(C(=O)Nc2ccc(Cl)cc2)c(C)o1`, the RP-LC retention time came to 901 s.

`CC(NC(=O)c1csc(-c2ccc(N3CCCC3)nc2)n1)c1ccccn1` (centres undefined) displayed an RP-LC retention time of 573 s.

The compound `Cc1cc(C)cc(NC(=O)Cc2nnc(-c3cnccn3)o2)c1` yielded an RP-LC retention time of 729 s.

In turn, `Cc1ccc(C)c(NC(=O)Cn2cnc3nc4c(cc3c2=O)CCCC4)c1` had an RP-LC retention time of 705 s.

Compound `COC[C@@H]1CN(Cc2cccc(OC)c2OC)C[C@H]1c1ccncc1` displayed an RP-LC retention time of 656 s.

The compound `CSc1ccc(CNC(=O)C2CCCN(c3ccc(N4CCOCC4)nn3)C2)cc1` (centres undefined) yielded an RP-LC retention time of 653 s.

In the case of `O=C(NCc1csc(-c2ccccc2)n1)C1CCN(S(=O)(=O)c2ccccc2)CC1`, the RP-LC retention time turned out to be 903 s.

For the compound `CCSCCOC(=O)C1=C(C)NC(=O)NC1c1cccc(OC)c1OC` (centres undefined), the RP-LC retention time came out at 792 s.

Consider `CCn1cc(-c2nc(CC(=O)Nc3ccccc3)cs2)c2cccnc21`, for which the RP-LC retention time was determined as 892 s.

For `Nc1cc(C2CCN(C(=O)Nc3cccc(Br)c3)CC2)no1`, the RP-LC retention time was determined as 744 s.

Consider `COC(=O)c1c(C)[nH]c(C(=O)N2CCC(CC(=O)NCCN3CCCCCC3)CC2)c1C`, for which the RP-LC retention time amounted to 594 s.

Regarding `COc1ccc(C(=O)N2CCN(c3cc(-c4cccs4)[nH]n3)CC2)cc1OC`, the RP-LC retention time was 741 s.

With `O=C(Cc1nnc2cc(-c3nc(C4CC4)no3)ccn12)N1CCCCCC1`, the RP-LC retention time turned out to be 685 s.

As to `CCc1cc(=O)n(CC(=O)Nc2ccc(OC)c(F)c2)c(N)n1`, the RP-LC retention time turned out to be 788 s.

In turn, `Cc1nc(Cn2cccc2C(=O)NC2CCCCCCC2)no1` returned an RP-LC retention time of 954 s.

Consider `CCOC(=O)c1cccc(NC(=O)C2CCCN(C(=O)C3Sc4ccccc4NC3=O)C2)c1` (centres undefined), for which the RP-LC retention time is 851 s.

Consider `Cc1nn(CC(=O)NCCN2CCOCC2)c(=O)c2c(-n3cccc3)n(-c3ccc(F)cc3)nc12`, for which the RP-LC retention time came to 654 s.

In the case of `CCOC(=O)COc1cc(-c2ccc(F)cc2)nc2ccc(NC(=O)COc3ccccc3)cc12`, the RP-LC retention time is 924 s.

The compound `Cc1ccccc1Nc1c(-c2cccc(Br)c2)nc2ccc(Cl)cn12` yielded an RP-LC retention time of 1100 s.

Regarding `Cn1cc(-c2ccccc2)cc1C(=O)O`, the RP-LC retention time came to 842 s.

`CCOc1ccc(C(=O)NCc2nnc3n2CCCC3)cc1OCC` had an RP-LC retention time of 674 s.

In the case of `CCOC(=O)/C=C/c1c(C)[nH]c(=O)[nH]c1=O`, the RP-LC retention time came out at 610 s.

On to `CCCS(=O)(=O)c1nc2ccc(NS(=O)(=O)c3ccc(F)c(F)c3)cc2s1`, for which the RP-LC retention time is 973 s.

In the case of `Cc1cc(-n2nnc(C(=O)N3CCC4(CC3)OCCO4)c2-c2ccncc2)ccc1F`, the RP-LC retention time is 715 s.

Compound `O=C1CCCc2cc(S(=O)(=O)NCCCN3CCN(c4ccccc4)CC3)ccc2N1` gave an RP-LC retention time of 576 s.

In the case of `Cc1ccc(-c2c(C)noc2C)cc1S(=O)(=O)Nc1ccccc1`, the RP-LC retention time came out at 932 s.

Regarding `O=C(CN1CC=C(c2cnn(-c3ccc(F)cc3)c2)CC1)N1CCN(c2ccccn2)CC1`, the RP-LC retention time was 566 s.

The compound `CCOC(=O)c1cccc(NC2=NS(=O)(=O)C(c3ccc(F)cc3)=C2C)c1` showed an RP-LC retention time of 927 s.

`CCOCC(=O)N1CCC(c2nc(CNC(=O)C3CCC3)cs2)CC1` registered an RP-LC retention time of 623 s.

`Cc1ccc(NS(=O)(=O)c2cc(-c3[nH]ncc3C(=O)N(C)C)oc2C)c(C)c1` displayed an RP-LC retention time of 739 s.

In the case of `COc1cccc(-c2nc(C3CCN(S(=O)(=O)c4ccc(Cl)cc4)CC3)no2)c1`, the RP-LC retention time came to 1170 s.

As for `O=C(NCCC1=CCCCC1)C(=O)Nc1cccc([N+](=O)[O-])c1`, the RP-LC retention time is 1030 s.

In turn, `COc1ccccc1N1CCN(c2cc(SCC(=O)Nc3cccc(Cl)c3C)ncn2)CC1` returned an RP-LC retention time of 1110 s.

With `CCOC(=O)c1cn(Cc2ccccc2C)c2nc(C)ccc2c1=O`, the RP-LC retention time worked out at 909 s.

As to `CC1CCCC(C)N1C(=O)CSc1nnc(-c2ccc3c(c2)OCCCO3)n1C` (centres undefined), the RP-LC retention time was found to be 780 s.

As for `CC(=O)N1C(=O)C2(NCC(C)N2)c2ccccc21` (centres undefined), the RP-LC retention time stood at 625 s.

In turn, `CC(=O)N1CCCc2cc(S(=O)(=O)N3CCC(C(=O)NCc4ccccn4)CC3)ccc21` showed an RP-LC retention time of 607 s.

`CCN1CCCn2cc(S(=O)(=O)Nc3ccccc3)cc2C1=O` came in with an RP-LC retention time of 666 s.

Regarding `COc1cccc2c1cc1c(=O)n(CC(=O)N3CCN(c4ccccn4)CC3)nc(C)n12`, the RP-LC retention time turned out to be 591 s.

On to `Cc1ccc2[nH]c(=O)c(CCC(=O)NCCN3CCc4ccccc4C3)cc2c1`, for which the RP-LC retention time stood at 634 s.

Turning to `CCOC(=O)c1nc(NCC2CCN(Cc3ccccc3C)CC2)c2c(C)noc2n1`, the RP-LC retention time was 738 s.

On to `COc1cc(CNCCc2c[nH]c3ccccc23)ccc1OCc1ccc2c(c1)n(C)c(=O)n2C`, for which the RP-LC retention time amounted to 670 s.

`Cc1cc(C)cc(NC(=O)C2CCCN(c3ccc4cc(S(=O)(=O)N5CCCC5)ccc4n3)C2)c1` (centres undefined) registered an RP-LC retention time of 835 s.

Turning to `CCc1ccccc1S(=O)(=O)Nc1ccc2c(c1)nc(-c1ccc(C(=O)N(CC)CC)cc1)n2C`, the RP-LC retention time turned out to be 739 s.

As to `Cc1nn(-c2cc(N3CCCC3)ncn2)c(C)c1CCC(=O)NCc1ccc2c(c1)OCO2`, the RP-LC retention time was 921 s.

Turning to `Cc1cc2c(cc1S(=O)(=O)N1CCCC1C(=O)NCCCc1ccccc1)OCC(=O)N2` (centres undefined), the RP-LC retention time was 816 s.

`COc1ccccc1CNc1ncc(C(=O)O)c(-c2ccncc2)n1` came in with an RP-LC retention time of 638 s.
